The record followed here is patent US20230338340A1, “Methods of Treating Cystic Fibrosis” (The Trustees of Dartmouth College, priority 2020, published 2023).

Test [1] deals with CFTR. Kind of test: Apical membrane abundance of CFTR in WT-CFBE cells (biotinylation, immunoblot). It counts as cell-based. Particulars: 1 μM. On the procedure:
Apical membrane CFTR was normalized for CFTR abundance in cell lysate. N=2 (1h and 2 h) and n=3 (4h). Error bar S.E.M. *p<0.05 versus vehicle control (CTRL; 0.03% water).
A general note: In western blotting, separated proteins are transferred to a membrane and probed.

Test [2] has as its system CFTR. Kind of test: CFTR activity in F508del HBE primary cells. Conditions: 1 μM, 4 hours. It counts as cell-based.
For the next test, the system named is HBE primary cells. Kind of test: Airway surface liquid (ASL) volume after forskolin stimulus in HBE primary cells. Conditions: 20 μM, basolateral, 4 hr. The test is classed as cell-based. How it is done: A functional test for CFTR activity is the determination of airway surface liquid (ASL) height, reflecting ion transport and associated osmotic recruitment of water, following activation of CFTR ion transport via forskolin stimulation. This functional test is directly related to one of the hallmarks of CF: the viscosity of airway mucus due to lack of anion transport.
Example 6 or Example 9 (20 μM each) or DMSO (CTR; 0.02%; […]) was added to the basolateral medium for 4 hr. Subsequently, forskolin (20 μM) and IBMX (1 mM) was added to the apical and basolateral medium. The test compounds were added for 30 min directly to the basolateral medium, and they were added in 10 μL medium to the apical side. The 10 μL volume was subtracted from the ASL volume (N=2-4/group).

In the next test the target is T1, Human-Dab2-DH (Homo sapiens, UniProt P98082).
T1 construct: fused on or other part: N-terminal 10xHis tag with a 3C protease site, cleaved off unless otherwise indicated
T1 sequence (P98082 33-178 limits assumed): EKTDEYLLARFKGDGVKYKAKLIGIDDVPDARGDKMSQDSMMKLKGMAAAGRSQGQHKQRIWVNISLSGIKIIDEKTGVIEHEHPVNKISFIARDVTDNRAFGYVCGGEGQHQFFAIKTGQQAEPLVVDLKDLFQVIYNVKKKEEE
Kind of test: Dab2 FP competition assay via HTS. It counts as binding. On the procedure: CALP and/or Dab2 inhibition assays were performed in biochemical “mix-and-measure” format in order to evaluate the effects on activation and inhibition of CALP and/or Dab2 by the compounds of the disclosure. Brief assay procedure is provided below. Unless otherwise specified, all of the compounds were obtained from commercial sources.
Dab-2 inhibitors were also identified by FP competition assays via HTS. Human-Dab2-DH, residues 31-191 (Uniprot: P98082), and trDab2-DH (residues 33-178) was subcloned into the pET16b vector via PCR utilizing the restriction enzyme sites of Xhol and BamHI. The construct was designed with a 3C protease cleavage site directly upstream and in-frame with the protein coding sequence. DNA was sequence verified. (0.1 mM) IPTG was used to induce protein expression in E. coli BL21(DE3)RIL cells, after reaching an O.D. of […]. […] Followed by 3C cleavage of the 10×His tag (unless otherwise indicated), and a second nickel affinity column to remove the 3C protease and excess tag. Dab2-DH was dialyzed into FP storage buffer (25 mM Tris pH 8.0, 150 mM NaCl, 0.1 mM TCEP, and 0.02% sodium azide). Fluorescent reporter peptides, TIVR*STA02 (TMR*-[…]) and TMR*STA03 (TMR*-[…]), were purchased commercially with the following sequence where TMR* denotes a N-terminal tetramethylrhodamine group coupled via an aminohexanoic acid linker. An unlabled positive control peptide STA02 ([…]) was also purchased commercially. Inhibitors of Dab2-DH were identified from a variety of sources with various protocols outlined below.
For screens conducted at the Novartis Institutes for BioMedical Research FAST Lab, single-dose HTS assays were performed with libraries comprising ˜52,000 compounds at 20 μM doses. Experiments were conducted as described for screens at the University of Pittsburgh Lab and Drug Discovery Institute, except that Dab2-DH, not trDab2-DH, was used as the protein source.
For screens conducted at the Broad Institute, compound transfers were done using a 384-well pin tool equipped with 100 nL hydrophobic surface coated pins. 100 nL of DMSO (negative control), STA02 (positive control), or library compounds were dispensed into 20 μL of protein (200 nM) and reporter (F*-STA02, 30 nM) mixture with 0.1 mg/ml mouse IgG and 0.5 mM Thesit. Final concentrations in the mixture were DMSO ([…]), STA02 (20 μM), and compounds (18 μM). Plates were incubated for 35-45 minutes before measuring polarization. Compounds were tested in duplicates on two separate plates. Positive and negative controls were included in each individual plate.
For experiments conducted at the University of Pittsburgh Lab and Drug Discovery Institute, single-dose HTS assays were performed with a library containing ˜220,000 compounds. On the day of screening, a master mix of equal parts trDab2-DH (900 nM) and TMP-STA03 (90 nM) was prepared. Compound plates containing assay ready 2 μL aliquots of a 1 mM stock solution in DMSO were thawed, reconstituted in FP buffer to a concentration of 30 μM in 3% DMSO, and five μL transferred to low volume assay plates using a Perkin Elmer MDT. Ten μL of master mix were added by a Microflo bulk liquid dispenser (Biotek, Winooski, VT) and processed as described in the general protocol above. Each plate contained 32 wells of positive (Dab2-DH+probe+DMSO) and negative (Dab2-DH+probe +10 μM STA03) controls. Plates were read at 1.5-h and 4-h on the Envision multilabel reader.

A further test concerns the target T2, Dab2-DH (Homo sapiens, UniProt P98082).
T2 construct: Human-Dab2-DH, residues 31-191 (Uniprot: P98082); 10xHis (3C protease site) (N, cleaved yes); made in house; host or cells: E. coli BL21(DE3)RIL
T2 sequence (P98082 31-191): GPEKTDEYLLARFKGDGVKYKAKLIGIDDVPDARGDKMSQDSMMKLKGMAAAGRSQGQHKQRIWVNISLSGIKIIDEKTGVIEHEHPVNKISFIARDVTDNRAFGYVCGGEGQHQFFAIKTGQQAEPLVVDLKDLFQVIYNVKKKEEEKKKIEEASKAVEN
Kind of test: Dab2-DH FP competitive displacement experiments (F*-STA02 reporter). It counts as binding. Conditions: text b140.

The mark [3] stands for this setting: with VX-770, C-18, CFFT-002, Fsk and IBMX.

In the case of `C=C1c2cccc(O)c2C(O)=C2C(=O)[C@]3(O)C(O)=C(C(N)=O)C(=O)[C@@H](N(C)C)[C@@H]3[C@@H](O)[C@H]12` [Example 10, (4S,4aR,5S,5aR,12aR)-4-(dimethylamino)-1,5,10,11,12a-pentahydroxy-6-methylene-3,12-dioxo-3,4,4a,5,5a,6,12,12a-octahydrotetracene-2-carboxamide], the “Abundance of CFTR (apical membrane)” value in the test with CFTR [1] is on record as “increase in the abundance of CFTR”. Further, in the test with CFTR [2] (setting [3]), the CFTR activity entry is given as “significant enhancement of CFTR activity”; the “Channel activity relative to absence of C-18 and CFFT-002” value is reported as “approximately 2 fold”. Also, the CFTR activity result in the test on CFTR [2] (with VX-770, Fsk and IBMX) is on record as “significant enhancement of CFTR activity”.
For orientation: IC50 means the concentration that inhibits the measured activity by half. Read a high IC50 as weaker potency. On to `COc1cc(O)c(C(=O)O)c(-c2cc(O)c(O)cc2C)c1` [Example 9, 3,4′,5′-trihydroxy-5-methoxy-2′-methyl-[1,1′-biphenyl]-2-carboxylic acid], for which the “ASL volume generated in response to forskolin stimulus” value with HBE primary cells is “increased the ASL volume”. Also, the half-maximal inhibitory concentration (IC50) on Human-Dab2-DH came out at 0.037 µM.
Usually Ki stands for a measure of affinity in units of concentration, obtained from inhibition or displacement. A high value points to a looser hold on the target. As to `CN1CCc2cccc3c2[C@@H]1Cc1ccc(O)c(O)c1-3.Cl` [Example 12, (S)-6-methyl-5,6,6a,7-tetrahydro-4H-dibenzo[de,g]quinoline-10,11-diol hydrochloride], on Dab2-DH, affinity was put at a Ki of 1.61 ± 0.74 µM. Moreover, the “Inhibitory activity Dab2 at Cmax” value on Human-Dab2-DH (at Cmax, cells printed with %) was around −95%.
